From patent US20260007133A1, “HERBICIDAL COMPOSITION COMPRISING AZINE COMPOUNDS” (BASF SE, priority 2022, published 2026)
Like-named read-outs stand apart in the source and are kept apart here.

Key:
Assay type in all cases: in vivo
[1] = tested on: Abutilon theophrasti; assay: Greenhouse post-emergence (POST) herbicidal test on ABUTH; conditions: for % activity: ABUTH POST
Protocol: (§1) The culture containers used were plastic pots containing loamy sand with approximately 3.0% of humus as substrate. The seeds of the test plants were sown separately for each species.
(§2) For the post-emergence treatment, the test plants were grown to a plant height of from 3 to 15 cm, depending on the plant habit, and only then treated with the active compounds which had been suspended or emulsified in water. To this end, the test plants were either sown directly, and grown in the same containers, or they were first grown separately as seedlings and transplanted into the test containers a few days prior to treatment.
(§3) Depending on the species, the plants were kept at 10-25° C. and 20-35° C., respectively.
(§4) The test period extended over 2 to 4 weeks. During this time, the plants were tended and their response to the individual treatments was evaluated.
(§5) Evaluation was carried out using a scale from 0 to 100. 100 means no emergence of the plants, or complete destruction of at least the above-ground parts, and 0 means no damage or normal course of growth. A good herbicidal activity is given at values of at least 70, and very good herbicidal activity is given at values of at least 85.
(§6) If not stated differently, the respective components A and B, and if appropriate, C were formulated as a 5% by weight strength emulsion concentrate and, with addition of the amount of solvent system, introduced into the spray liquor used for applying the active compound.
(§7) As indicated application was either post emergent (POST) at the respective growth stage (GS) of the weed (BBCH code), or pre-emergent (PRE). […]

[2] = tested on: Digitaria sanguinalis; assay: Greenhouse post-emergence (POST) herbicidal test on DIGSA; conditions: for % activity: DIGSA POST
Protocol: as §1, §2, §3, §4, §5, §6, §7

[3] = tested on: Ipomoea hederacea; assay: Greenhouse post-emergence (POST) herbicidal test on IPOHE; conditions: for % activity: IPOHE POST
Protocol: as §1, §2, §3, §4, §5, §6
As indicated application was either post emergent (POST) at the respective growth stage (GS) of the weed (BBCH code), or pre-emergent (PRE).
Assessment was 20 days after treatment (DAT).

[4] = tested on: Abutilon theophrasti; assay: Greenhouse pre-emergence (PRE) herbicidal test on ABUTH; conditions: Abutilon theophrasti, pre-emergence, 480 h, PRE, 20 DAT
Protocol: as §1
(§8) The containers were irrigated gently to promote germination and growth and subsequently covered with transparent plastic hoods until the plants had rooted.
as §3, §4, §5, §7

[5] = tested on: Alopecurus myosuroides; assay: Greenhouse pre-emergence (PRE) herbicidal test on ALOMY; conditions: Alopecurus myosuroides, pre-emergence; for inhibition at 6.25 g/ha: read-out: % activity
Protocol: as §1, §8, §3, §4, §5, §7

[6] = tested on: Ambrosia artemisiifolia; assay: Greenhouse pre-emergence (PRE) herbicidal test on AMBEL; conditions: Ambrosia artemisiifolia, pre-emergence, 480 h, PRE, AMBEL, 20 DAT, read-out: solo application % activity
Protocol: as §1, §8, §3, §4, §5, §7

[7] = tested on: Euphorbia heterophylla; assay: Greenhouse pre-emergence (PRE) herbicidal test on EPHHL; conditions: Euphorbia heterophylla, pre-emergence, 480 h, PRE, 20 DAT
Protocol: as §1, §8, §3, §4, §5, §7

[8] = tested on: Amaranthus retroflexus; assay: Greenhouse post-emergence (POST) herbicidal test on AMARE
Protocol: as §1, §2, §3, §4, §5, §6, §7

[9] = tested on: Euphorbia heterophylla; assay: Greenhouse post-emergence (POST) herbicidal test on EPHHL; conditions: for % activity: EPHHL POST
Protocol: as §1, §2, §3, §4, §5, §6, §7

[10] = tested on: Geranium pusillum; assay: Greenhouse post-emergence (POST) herbicidal test on GERPU; conditions: Geranium pusillum, post-emergence
Protocol: as §1, §2, §3, §4, §5, §6, §7

[11] = tested on: Lolium multiflorum; assay: Greenhouse pre-emergence (PRE) herbicidal test on LOLMU; conditions: Lolium multiflorum, pre-emergence, 480 h
Protocol: as §1, §8, §3, §4, §5, §7

[12] = tested on: Setaria viridis; assay: Greenhouse pre-emergence (PRE) herbicidal test on SETVI; conditions: Setaria viridis, pre-emergence; for inhibition at 6.25 g/ha / inhibition at 12.5 g/ha: read-out: % activity
From the text: as §1
For the pre-emergence treatment, the active compounds, suspended or emulsified in water, were applied directly after sowing by means of finely distributing nozzles. The containers were irrigated gently to promote germination and growth and subsequently covered with transparent plastic hoods until the plants had rooted. This cover caused uniform germination of the test plants unless this was adversely affected by the active compounds.
as §3, §4, §5, §6, §7

[13] = tested on: Echinochloa crus-galli; assay: Greenhouse post-emergence (POST) herbicidal test on ECHCG; conditions: Echinochloa crus-galli, post-emergence
Protocol: as §1, §2, §3, §4, §5, §6, §7

[14] = tested on: Commelina benghalensis; assay: Greenhouse pre-emergence (PRE) herbicidal test on COMBE; conditions: Commelina benghalensis, pre-emergence, read-out: % activity
Protocol: as §1, §8, §3, §4, §5, §7

[15] = tested on: Echinochloa crus-galli; assay: Greenhouse pre-emergence (PRE) herbicidal test on ECHCG; conditions: Echinochloa crus-galli, pre-emergence, 480 h, read-out: % activity
Protocol: as §1, §8, §3, §4, §5, §7

[16] = Amaranthus retroflexus, post-emergence, read-out: % activity

Cc1cccc(C2CC2)c1Oc1nnc(Cl)cc1OC(=O)N1CCOCC1 [Cyclopyrimorate, cyclopyrimorate] was tested, and the “% activity” value ([1]; use rate 25 gai/ha) was 5%, the “% activity” value ([2]; use rate 25 gai/ha) was 10% and the “% activity” value ([2]; use rate 200 gai/ha) was 40%. For the same compound, the “% activity” value ([3]; use rate 25 gai/ha) was 40%.
CCCC(=NOCC)C1=C(O)CC(C2CCCSC2)CC1=O (centres unmarked) [Cycloxydim, cycloxydim] was tested, and the pest or weed control at 5 g/ha ([4]; 5 gai/ha) was 0%, the inhibition at 5 g/ha ([4]; ABUTH, use rate 5 gai/ha, read-out: solo application % activity) was 0% and the pest or weed control at 20 g/ha ([5]; 480 h, PRE, 20 gai/ha, 20 DAT) was 60%. For the same compound, the inhibition at 5 g/ha ([5]; 480 h, PRE, ALOMY, use rate 5 gai/ha, 20 DAT, read-out: solo application % activity) was 15%, the inhibition at 20 g/ha ([5]; 480 h, PRE, ALOMY, use rate 20 gai/ha, 20 DAT, read-out: solo application % activity) was 60% and the inhibition at 5 g/ha ([6]; use rate 5 gai/ha) was 0%. The inhibition at 20 g/ha ([6]; use rate 20 gai/ha) was 0%, the pest or weed control at 5 g/ha ([7]; 5 gai/ha) was 5% and the inhibition at 5 g/ha ([7]; EPHHL, use rate 5 gai/ha, read-out: solo application % activity) was 5%. It also gave an inhibition at 20 g/ha ([7]; EPHHL, use rate 20 gai/ha, read-out: solo application % activity) of 10%, a pest or weed control at 5 g/ha ([1]; Abutilon theophrasti, post-emergence, 480 h, POST, 5 gai/ha, 20 DAT) of 0% and an inhibition at 5 g/ha ([1]; Abutilon theophrasti, post-emergence, 480 h, POST, ABUTH, use rate 5 gai/ha, 20 DAT, read-out: solo application % activity) of 0%. It also gave an inhibition at 20 g/ha ([1]; Abutilon theophrasti, post-emergence, 480 h, POST, ABUTH, use rate 20 gai/ha, 20 DAT, read-out: solo application % activity) of 0%, an inhibition at 5 g/ha ([8]; Amaranthus retroflexus, post-emergence, 480 h, POST, AMARE, use rate 5 gai/ha, 20 DAT, read-out: solo application % activity) of 0% and an inhibition at 20 g/ha ([9]; Euphorbia heterophylla, post-emergence, 480 h, POST, EPHHL, use rate 20 gai/ha, 20 DAT, read-out: solo application % activity) of 0%. For the same compound, the inhibition at 5 g/ha ([10]; 480 h, POST, GERPU, use rate 5 gai/ha, 20 DAT, read-out: solo application % activity) was 5%, the pest or weed control at 5 g/ha ([3]; Ipomoea hederacea, post-emergence, 480 h, POST, 5 gai/ha, 20 DAT) was 0% and the inhibition at 5 g/ha ([3]; Ipomoea hederacea, post-emergence, 480 h, POST, IPOHE, use rate 5 gai/ha, 20 DAT, read-out: solo application % activity) was 0%. For the same compound, the inhibition at 20 g/ha ([3]; Ipomoea hederacea, post-emergence, 480 h, POST, IPOHE, use rate 20 gai/ha, 20 DAT, read-out: solo application % activity) was 0%.
Compound C#CCN1C(=O)COc2cc(F)c(N3C(=O)C4=C(CCCC4)C3=O)cc21 [Flumioxazin, flumioxazin] has an inhibition at […] ([4]; ABUTH, use rate 0.25 gai/ha, read-out: solo application % activity) of 0%, an inhibition at 0.5 g/ha ([4]; ABUTH, use rate 0.5 gai/ha, read-out: solo application % activity) of 0% and an inhibition at 1 g/ha ([4]; ABUTH, use rate 1 gai/ha, read-out: solo application % activity) of 0%. The inhibition at […] ([5]; 480 h, PRE, ALOMY, use rate 0.25 gai/ha, 20 DAT, read-out: solo application % activity) was 0%, the inhibition at 0.5 g/ha ([5]; 480 h, PRE, ALOMY, use rate 0.5 gai/ha, 20 DAT, read-out: solo application % activity) was 0% and the inhibition at 0.5 g/ha ([6]; use rate 0.5 gai/ha) was 0%. The inhibition at 2 g/ha ([6]; use rate 2 gai/ha) was 0%, the inhibition at […] ([7]; EPHHL, use rate 0.25 gai/ha, read-out: solo application % activity) was 0% and the inhibition at 0.5 g/ha ([7]; EPHHL, use rate 0.5 gai/ha, read-out: solo application % activity) was 5%. The inhibition at 1 g/ha ([7]; EPHHL, use rate 1 gai/ha, read-out: solo application % activity) was 5%, the inhibition at 2 g/ha ([7]; EPHHL, use rate 2 gai/ha, read-out: solo application % activity) was 10% and the inhibition at 0.5 g/ha ([11]; PRE, LOLMU, use rate 0.5 gai/ha, 20 DAT, read-out: solo application % activity) was 0%. The inhibition at 0.5 g/ha ([12]; 480 h, PRE, SETVI, use rate 0.5 gai/ha, 20 DAT, read-out: solo application % activity) was 0%, the inhibition at 1 g/ha ([12]; 480 h, PRE, SETVI, use rate 1 gai/ha, 20 DAT, read-out: solo application % activity) was 0% and the inhibition at 2 g/ha ([12]; 480 h, PRE, SETVI, use rate 2 gai/ha, 20 DAT, read-out: solo application % activity) was 0%. It also gave an inhibition at 2 g/ha ([1]; Abutilon theophrasti, post-emergence, 480 h, POST, ABUTH, use rate 2 gai/ha, 20 DAT, read-out: solo application % activity) of 70%, an inhibition at 1 g/ha ([2]; Digitaria sanguinalis, post-emergence, 480 h, POST, DIGSA, use rate 1 gai/ha, 20 DAT, read-out: solo application % activity) of 10% and an inhibition at 2 g/ha ([2]; Digitaria sanguinalis, post-emergence, 480 h, POST, DIGSA, use rate 2 gai/ha, 20 DAT, read-out: solo application % activity) of 25%. It also gave an inhibition at 0.5 g/ha ([13]; 480 h, POST, ECHCG, use rate 0.5 gai/ha, 20 DAT, read-out: solo application % activity) of 0%, an inhibition at 1 g/ha ([13]; 480 h, POST, ECHCG, use rate 1 gai/ha, 20 DAT, read-out: solo application % activity) of 5% and an inhibition at 2 g/ha ([13]; 480 h, POST, ECHCG, use rate 2 gai/ha, 20 DAT, read-out: solo application % activity) of 30%. For the same compound, the inhibition at 1 g/ha ([9]; Euphorbia heterophylla, post-emergence, 480 h, POST, EPHHL, use rate 1 gai/ha, 20 DAT, read-out: solo application % activity) was 60% and the inhibition at 2 g/ha ([10]; 480 h, POST, GERPU, use rate 2 gai/ha, 20 DAT, read-out: solo application % activity) was 45%.
Work on O=C(O)CNCP(=O)(O)O [Glyphosate, glyphosate] yielded an inhibition at 200 g/ha ([1]; Abutilon theophrasti, post-emergence, read-out: % activity) of 25%, an inhibition at 100 g/ha [8, 16] of 10% and an inhibition at 200 g/ha [8, 16] of 80%. The inhibition at 100 g/ha ([13]; read-out: % activity) was 30%, the inhibition at 200 g/ha ([13]; read-out: % activity) was 35% and the inhibition at 100 g/ha ([10]; read-out: % activity) was 45%. The inhibition at 200 g/ha ([3]; Ipomoea hederacea, post-emergence, read-out: % activity) was 15%.
In the case of CCC/C(=N\OCC)C1=C(O)CC(CC(C)SCC)CC1=O (centres unmarked) [Sethoxydim, sethoxydim], the inhibition at 6.25 g/ha ([5]; 480 h) is reported as 20%, the inhibition at 6.25 g/ha [5] is reported as 20% and the inhibition at 6.25 g/ha [14] is reported as 0%. For the same compound, the inhibition at 6.25 g/ha [15] was 10%, the inhibition at 12.5 g/ha [15] was 40% and the inhibition at 6.25 g/ha ([11]; read-out: % activity) was 15%. It also gave an inhibition at 6.25 g/ha ([12]; 480 h) of 5%, an inhibition at 12.5 g/ha ([12]; 480 h) of 60% and an inhibition at 6.25 g/ha [12] of 5%. The inhibition at 12.5 g/ha [12] was 60%.
For CN1C[C@H](c2cccc(C(F)(F)F)c2)[C@@H](C(=O)Nc2ccccc2F)C1=O [Tetflupyrolimet, tetflupyrolimet], the “% activity” value ([1]; use rate 250 gai/ha) was 5%, the “% activity” value ([8]; AMARE POST, use rate 250 gai/ha) was 35% and the “% activity” value ([9]; use rate 31.25 gai/ha) was 0%. The “% activity” value ([9]; use rate 250 gai/ha) was 0% and the “% activity” value ([3]; use rate 31.25 gai/ha) was 0%.
